The text below walks through data of patent US6465396B1, “Method to promote growth of a plant” (Nara Institute of Science and Technology, priority 1999, dated 2002).

Read-outs that look alike come from different tables or passages of the source.

In test [1] the test system is kidney bean (Phaseolus vulgaris L.: tsurunashiinngenn). As to conditions: 2 mM, FIG. 5. Here is the method:
(§1) The plants were seeded under a vermiculight.
(§2) Generation of oxygen was measured by clark type oxygen electrode. The cuvette (LD2/2 type), the oxygen electrode controller (CB 1-D3 type) and the light source (LS-2, Hansatec corp.) were adopted as components of the measuring device. The chamber of cuvette contained in this device is composed of combination of a chamber, capable of hermetically sealing with diameter of 35 mm and volume of 5 ml, and an oxygen electrode. As upper side of the chamber is transparent, arbitrary intensity of light can be illuminated. The plant body described above, after administration of formic acid, was enclosed in the chamber and sealed hermetically. It was illuminated using a halogen lamp as the light source, and the rate of oxygen generation was measured under the air containing 5% of carbon dioxide. Unless specified otherwise, the measurement was performed under the light adjusted to a intensity of 253 μmol quanta/m^2·s using a red filter or an attenuation filter. The oxygen generation was calculated by dividing the obtained value with the surface area of the leaf.

Test [2] deals with tabacco (Nicotina tabacum L.: SRI). As to conditions: 2 mM, FIG. 6. Here is the method:
as §1, §2

Test [3] has as its system rice (Oryza sativa L.: Hinihikari). The test is described as follows: Photo-oxidation damage, photosynthetic ability as oxygen generation rate, rice leaves. To be noted: for residual photosynthetic ability (oxygen generation rate): when control sample was reduced to 30%, concentration not given, FIG. 15.
Another test has as its system tabacco. To be noted: FIG. 18.
In another test the test system is kidney bean. To be noted: FIG. 19.
In the next test the test system is rice plant bodies. The test is described as follows: Plant growth test, rice. As to conditions: 2 weeks cultivation. In kind it is in vivo, Oryza sativa L. The text has this: The effect of formate salts addition observed on plant growth was investigated. The seeds of rice were sterilized and seeded into a glass tube (130 mm×40 mm I.D) containing medium described below. The contents of the medium are ½MS salt, 0.1% gellan gum and various concentrations of sodium formate. The pH was adjusted to 6.0 by addition of 1N sodium hydroxide and the medium was sterilized by autoclave treatment. […] After cultivation for 2 weeks under this condition, the extent of growth was estimated by measurement of length of the aerial part and wet weight of plant bodies.

Test [4] concerns formate dehydrogenase (FDH). As to conditions: root of rice cultivated in the presence of 1.4 mM formic acid, 25° C., two weeks; FIG. 12. Here is the method:
Then the alteration of FDH activity by administration of formic acid was investigated. The rice plant bodies were cultivated in the presence or absence of 1.4 mM formic acid at 25° C. for two weeks. The aerial part and the ground part (root) was separated and the crude enzyme solution was prepared from each part. The enzyme solution was prepared to 1.5 mg/ml and FDH activities of the samples were measured. The FDH activity was measured using [^13C] formic acid as the substrate and detecting [^13C] CO2 in the supernatant by GC-MS.

Another test has as its system FDH gene. As to conditions: ground part (root) of rice; pretreatment with formic acid administration; FIG. 14.

Experimental for FDH gene: In the case of utilization for northern analysis, total RNA was isolated from leaf and root of rice cultivated under condition described above, using Isogen RNA purification kit (Nippon gene).
RNA was prepared from the aerial part and the ground part (root) respectively and the northern analysis was performed on these samples. Forty μg of the total RNA was applied to each lane and electrophoresis was performed on 1% agarose gel (containing 2.2 M formaldehyde). The gel was charged for the capillary blotting using Hybond N+membrane (Amersham) using 20×SSC. The hybridization was performed according to instruction of AlkPhosDIREST (Amersham) and detection was performed using CDP-Star (Amersham). The FDH cDNA (open reading frame:1130 bp), amplified by PCR, was used as probe DNA.

In the case of `O=C[O-].[K+]` [potassium formate, Potassium formate], the “effect on oxygen generation rate reduction caused by photo-oxidation damage” value in test [1] and in test [2] was “exhibited inhibition” each time. Also, in test [3] (2 mM or 4 mM, FIG. 4), the “dose-dependency of protection on photo-oxidation damage” value was “optimum protection”. The “oxygen generation activity retained after photo-oxidation damage” value in test [3] (2 mM, 8 min strong light illumination in the absence of carbon dioxide, control reduced to about 30%, FIG. 1) is given as 90%. The “time course of damage on photosynthetic ability” value in test [3] (2 mM, photo-oxidation damage treatment 2 min, 4 min, FIG. 2) is “the damage on photosynthetic ability was inhibited”.

Turning to `CO` [methanol], the “reduction of Fv/Fm value caused by photo-oxidation damage” value with rice (25 mM or 50 mM, FIG. 17) is “significant inhibition”. The “damage on photo-system by chlorophyl fluorescence analysis” value with tabacco (100 mM) and in the test with kidney bean (100 mM) was “significantly alleviated” each time. Besides, the “photosynthetic ability under various light intensities after photo-oxidation damage” value in test [3] (methanol, especially under strong light illumination, FIG. 16) is “avoided photo-oxidation damage”. The “residual photosynthetic ability (oxygen generation rate)” value in test [3] turned out to be 70%.

With `O=CO` [formate], the “damage on photo-system (Fv/Fm) caused by photo-oxidation damage” value with rice (2 mM, FIG. 7) was “avoided”.

As to `O=C[O-].[Na+]` [formate salt], in [3] (formate salt, strong light illumination (inclination not altered under weak light), FIG. 3), the “photosynthetic ability under various light intensities after photo-oxidation damage” value is recorded as “inhibited damage on photosynthetic ability under strong light illumination”. Further, the “residual photosynthetic ability (oxygen generation rate)” value in test [3] stood at 60%.

On to `O=C[O-].[Na+]` [sodium formate], for which the “growth promotion, wet weight of plant bodies” value with rice plant bodies (125 ppm in medium, FIG. 8) stood at 25%. Also, in the test on rice plant bodies (125 ppm in medium, FIG. 9), the “growth promotion, length of aerial part” value came to 25%. For the same molecule, in the test on rice plant bodies (1000 ppm in medium), the growth promotion effect entry is on record as “disappeared”.

`O=CO` [formic acid]: the “FDH activity compared to control group” value in [4] was “about twice”. The “damage on photo-system by chlorophyl fluorescence analysis” value in the test with tabacco (2 mM) and in the test with kidney bean (2 mM) was “potency” in each case. Also, in the test with FDH gene, the “expression of FDH gene” value was “significant increase”.
